# Data taken from US11117888B2, “Irreversible inhibitors of pyruvate kinase M2 and the use thereof” (China Medical University, priority 2020, dated 2021).
# Columns and labels:
# [1] = test system: MDA-MB-231 breast cancer cells; test: MTT cell viability assay, MDA-MB-231; type: cell-based; settings: Homo sapiens; MDA-MB-231, MTT, 24 hours
# Source text: (§1) Cell lines, cell culture, biochemical reagents, and antibodies. MiaPaCa-2, AsPC-1, and Panc-1 human pancreatic cancer cells, MCF-7 and MDA-MB-231 breast cancer cells, SCC4 and SCC2059 oral cancer cells, PC-3 and LNCaP prostate cancer cells, H157, H460, H1975, PC-9 and H1650 lung cancer cells were obtained from the American Type Culture Collection (ATCC, Manassas, Va.). All these cells were maintained in recommended growth medium (RPMI 1640 or DMEM) supplemented with 10% fetal bovine serum (FBS) (Invitrogen, Carlsbad, Calif., USA) and antibiotics at 37° C. in a humidified incubator containing 5% CO2. For SILAC experiments, PC-9 cells were grown in SILAC DMEM medium (Thermo Fisher) supplemented with 10% dialyzed FBS and 100 μg/mL each of unlabeled L-arginine and L-lysine (light medium) or ^13C/^15N stable isotope-labeled L-arginine and L-lysine (heavy medium). […]
# (§2) Cell viability assays. Drug effects on cell viability was assessed by 3-(4,5-dimethylthiazol-2-yl)-2,5-diphenyltetrazolium bromide ([…]) assays. […] The medium was then removed from each well and replaced with DMSO to dissolve the reduced MTT dye for subsequent colorimetric measurement of absorbance at 560 nm. Cell viabilities are expressed as percentages of viable cells relative to the corresponding vehicle-treated control group.
# [2] = test system: MCF-7 breast cancer cells; test: MTT cell viability assay, MCF-7; type: cell-based; settings: Homo sapiens, MCF7; MCF-7, MTT, 24 hours
# Source text: as §1, §2
# H1975 lung cancer cells = test: MTT cell viability assay, H1975; type: cell-based; settings: Homo sapiens, NCI-H1975, H1975 (mutant EGFR), 24 hours
# Source text: as §1, §2
# [3] = Incubation with free cysteine, mass spectral analysis; type: physicochemical; settings: stoichiometric amount of free cysteine in solution
# Source text: In an effort to develop irreversible kinase inhibitors, we chose the core structures of several published kinase inhibitors to couple with a propiolyl moiety, which could act as an electrophilic warhead to irreversibly modify the cysteine residues of target proteins.
# [4] = test system: PKM2, EGFR, Stat3, β-catenin in PC-9 cells; test: Immunoblot analysis of oncogenic effectors in PC-9 cells; type: cell-based, human; settings: Western blot, 24 hours
# Procedure: Immunoblot analysis. PC-9 cells were seeded into 6 cm dish at a concentration of 5×10^5 cells/mL. After 24 hours, cells were treated with 0-1 μM compound 1 or DMSO alone for 24 hours. The cells were harvested at 24 hours, and protein extractions were carried out. The protein lysate was subjected to 10% SDS-PAGE and transferred to a nitrocellulose membrane (GE Healthcare Life Sciences). Protein expression was analyzed by Western blotting using primary antibodies against PKM2, EGFR, p-STAT3, STAT3, p-β-catenin (Cell Signaling Technology), β-catenin (Santa Cruz Biotechnology) and β-actin (Sigma-Aldrich), followed by incubation with horseradish peroxidase-conjugated secondary (Jackson ImmunoResearch Laboratories). Specific proteins were detected by chemiluminescence using ECL Plus Western Blotting Detection Reagents (GE Healthcare Biosciences).
smiles,measurement,setting,value
"C#CC(=O)Nc1ccc(-n2nc(CCC(=O)NC)cc2-c2ccc(-c3ccc(C(F)(F)F)cc3)cc2)cc1 [compound 1, N-(4-(3-(3-(Methylamino)-3-oxopropyl)-5-(4′-(trifluoromethyl)-[1,1′-biphenyl]-4-yl)-1H-pyrazol-1-yl)phenyl)propiolamide]",IC50,[1],100 nM
same,IC50,[2],1000 nM
same,IC50,H1975 lung cancer cells,1000 nM
same,adduct formation with free cysteine,[3],formation of a covalent 1-cysteine adduct
same,"expression and/or phosphorylation of PKM2, EGFR, Stat3, β-catenin",[4],"downregulated the expression of PKM2 and EGFR, accompanied by parallel decreases in the phosphorylation and expression of Stat3 and β-catenin"
